The values below come from patent publication US7175990B2, “Method of determining endometrial receptivity” (The Regents of the University of California, priority 2002, dated 2007).

The subject of test [1] is explants of the human chorionic villous tree (trophoblast L-selectin). As to the kind of experiment: Binding of selectin ligand-coated beads to first-trimester villous explant cultures under shear stress. Type of test: cell-based. The settings on record: neoglycolipid-coated beads; cytotrophoblast column remnants and syncytiotrophoblasts. The procedure: Neoglycolipids were prepared by reductive amination of dipalmitoyl phosphatidylacetaldehyde with the aminoethyl glycoside of either sLe^x or 6-sulfo sLe^x 30 and dissolved in methanol (1 μg/μl). Blue 4-μm polystyrene latex beads (Interfacial Dynamics Corporation) were washed three times with ethanol, then resuspended in this solvent (1.2×10^8 beads/200 μl). Twenty-five micrograms of glycolipid was added, and the mixture was evaporated under nitrogen. Coated beads were washed three times in 1% BSA/PBS, then incubated with 3% BSA/PBS (2 h, room temperature). The beads were resuspended in 1 ml of 1% BSA/culture medium. Control beads were coated with phosphatidyl choline or used without coating.
Forty-eight first-trimester villous explant cultures were established (4 from 12 placentas; 2 experiments). After 24 h, the culture medium was removed, and 200 μl of a suspension of 2.4×10^7 beads in medium was added. Six explants were incubated with either experimental or control beads. Six other explants were pre-incubated with DREG-56 (30 min), then washed three times with medium before adding 6-sulfo sLe^x-coated beads. The explants were placed inside an incubator on a platform shaker (1 h; 20 cycles/min). Afterwards, bead suspensions were aspirated and explants were fixed in 3.8% paraformaldehyde (1 h, room temperature), washed three times in PBS (4° C.), and examined with a stereomicroscope. […]

For test [2], the system named is hatched mouse blastocysts. As to the kind of experiment: Binding of selectin ligand-coated beads to hatched mouse blastocysts under shear stress. Type of test: cell-based. Particulars: neoglycolipid-coated 4-μm polystyrene beads.
For another test, the system named is L-selectin. Particulars: compared with sLe^x; cited from earlier work.

As for “Siaα2→3Galβ1→4[Fucα1→3][SO3→6]GlcNAc [6-sulfo sLe^x]”, the “binding of ligand-coated beads to human villus explants / trophoblasts” value in test [1] is on record as “bound”. In test [2], the “binding of ligand-coated beads to hatched mouse blastocysts” value is recorded as “bound”. In addition, the “tightness of L-selectin binding, 6-sulfo sLe^x versus sLe^x” value in the test on L-selectin was “more tightly”.

For the compound `CC(=O)NC1C(O)CC(OC2C(O)C(CO)OC(OC3C(CO)OC(O)C(NC(C)=O)C3OC3OC(C)C(O)C(O)C3O)C2O)(C(=O)O)OC1C(O)C(O)CO` (centres unmarked) [sLe^x, Siaα2→3Galβ1→4[Fucα1→3]GlcNAc], in test [1], the “binding of ligand-coated beads to human villus explants / trophoblasts” value is “in fewer numbers”. Moreover, in test [2], the “binding of ligand-coated beads to hatched mouse blastocysts” value is listed as “bound”.
